From patent US20160361251A1, “NOVEL PROCESS FOR PRODUCING TRANSMUCOSAL PHARMACEUTICAL FORMULATIONS AND FORMULATIONS THUS OBTAINED” (Clemann Group, priority 2013, published 2016)

Test: Dissolution of active ingredient in ternary mixture stearate 1500/TPGS/water
Assay type: physicochemical
Description: For this purpose, 10 g of ternary mixture are prepared from 4.50 g of stearate 1500, 500 mg of TPGS and 5 g of water at 50° C. This mixture is maintained at 50° C. with stirring for 5 minutes.
In an Erlenmeyer provided with magnetic stirring, 1.80 g of stearate 1500 and 200 mg of TPGS are mixed at 50° C. with stirring for 3 minutes in order to form a homogenous and intimate mixture of both polymers. The mixture is then slowly cooled to 40° C.
1 ml of an aqueous solution of rBetv1 is then prepared at a concentration of 3 mg/ml.
1 ml of this solution is then introduced into the previous mixture of molten polymer maintained at 40° C.

Molecule	dissolution in ternary mixture (stearate 1500/TPGS/water 4.50 g/500 mg/5 g at 50° C., 4.54 g powder added)	dissolution in molten polymer mixture (1 ml of 3 mg/ml aqueous solution into 1.80 g stearate 1500 + 200 mg TPGS at 40° C.)
CNCC(O)c1ccc(O)c(O)c1.O=C(O)C(O)C(O)C(=O)O (centres unmarked) [adrenaline bitartrate]	total and rapid	–
rBetv1: recombinant allergen rBetv1, a characteristic allergen of trees of the order of fagales and in particular birch (protein, UniProt P15494 2-160, looked up) Major pollen allergen Bet v …: GVFNYETETTSVIPAARLFKAFILDGDNLFPKVAPQAISSVENIEGNGGPGTIKKISFPEGFPFKYVKDRVDEVDHTNFKYNYSVIEGGPIGDTLEKISNEIKIVATPDGGSILKISNKYHTKGDHEVKAEQVKASKEMGETLLRAVESYLLAHSDAYN	–	complete and rapid
